The values that follow come from patent US11578110B2, “Compounds for inducing tissue formation and uses thereof” (HISTIDE AG, priority 2015, dated 2023).

No end group written: not given here.

One experiment relates to hMSCs. Nature of the experiment: STRO-1 stemness marker expression in hMSCs (immunostaining, ImageJ quantification). It is filed as cell-based, Human. As to conditions: SEQ ID NO: 1 to 49 tested in combination with a bioactive carrier (titanium, ceramics, PEEK, hydrogel, etc.). Here is the method:
The cells were first fixed for 20 min with 4% paraformaldehyde/PBS at 4° C. After fixation, the cells were permeabilized in PBS containing 1% Triton X-100 for 15 min. Runx2, Osterix, Stro-1, Vinculin, Phalloidin, Osteopontin, Sox2, Sox9 antibodies were visualized by treating the cells with 1% (v/v) specific monoclonal antibodies for 1 hour at 37° C. Then the samples were incubated with Alexa fluor® 568 or 647 (F(ab′)2 fragment of IgG(H+L)) during 30 min at room temperature. The cell nuclei were counterstained in 20 ng/mL DAPI for 10 min at room temperature.
For this type of quantification the freeware image analysis ImageJ® software was used. The raw image was first converted to an 8-bit file, and then the unsharp mask feature was used (settings 1:0.2) to remove the image background (rolling ball radius 10). After smoothing, the resulting image, which appears similar to the original photomicrograph but with minimal background, was then converted to a binary image by setting a threshold. Threshold values were determined empirically by selecting a setting, which gave the most accurate binary image for a subset of randomly selected photomicrographs. The cell area was determined by manual delineation on raw fluorescent images. Total contact area and mean contact area per cell were calculated by “analyse particles” in ImageJ®. A minimum of 30 cells per condition were analyzed. Stro-1, CD-34+, and CD-105 expressions were determined using this procedure.
hMSCs were cultured on conventional cell culture plastic plates with or without the presence in the cell culture media of different GFR-binding compounds as defined hereins (SEQ ID NO: 50 to 104) in solution. […] This was probed by Stro-1 immunostaining after cell fixation as described in the Methods section. The quantification of Stro-1 positive contact numbers and areas was performed as described in the Methods section. A minimum of 30 cells per condition were analyzed.
RMSD values are always calculated for a GFR-binding peptide sequence exempt from any bioactive-carrier-affinity-containing group as defined herein (e.g. cysteine, WWFWG, GTPGP, etc. . . . ). When needed i.e. when attachment to a bioactive carrier is contemplated, the bioactive-carrier-affinity-containing group is then present in the GFR-binding compound when it is biologically tested. Using the method detailed in the description, the RMSD of 57 previously reported peptide sequences have been determined (Table 6) and correlated with the expression of STRO-1 after grafted on a PET surface via a procedure as already described above. […] One should note that it is commonly admitted that the expression of STRO-1 in a cell is indicative of a cell that is in a substantially non-differentiated state and the decrease of its expression of at least about 20% is indicative of a cell that has started a processes of differentiation but which may not result in the differentiation of the cell. A decrease of more than 50% would be indicative of the presence of a significant shift towards a differentiated state. A decrease of more than 70% would be indicative of the presence of a very important shift towards a differentiated state. A sustained decrease (e.g. for at least 96 h) of more than 50% or 70% would be indicative of the presence of an even more important shift towards a differentiated state.
Likewise, using the method detailed in the description, the RMSD of 87 GFR-binding peptide sequence representatives of the invention have been determined (Table 7) and correlated with the expression of STRO-1 after grafted on a PET surface via a procedure as already described above. SEQ ID NO: 1 to 49 were tested in combination with a bioactive carrier as defined above in the Examples Section (i.e. titanium, ceramics, PEEK, hydrogel, etc. . . . ), whereas SEQ ID NO: 1143 to 1180 were tested in solution.
In the case of RNVQSRPTQVQLSAISMLYL [SEQ ID NO: 14], the STRO-1 expression stood at 16%.
The same measure, in the same setting: to HVTKPTSVPEKLSSLSILFF [SEQ ID NO: 9] belongs 29%.
As to “GTPGPVPTEESAISMLYL (GFR-binding peptide) [SEQ ID NO: 28]”, the STRO-1 expression came out at 22%.
Same read-out and setting: to KIPKASSVPTELSATSVLYY [SEQ ID NO: 6] belongs 25%; to RNVQSRPTQVQLNAISVLYF [SEQ ID NO: 11], 24%; to “GTPGPPTSVPTKLSPISVLYK (GFR-binding peptide) [SEQ ID NO: 29]”, 27%.
The same measure, in the same setting: to AAPASSSVPTRLSAISMLYL [SEQ ID NO: 2] belongs 18%; to “GTPGPASSVPTKLSAISMLYL (GTPGPAXXVPTKLSAISMLYL; GFR-binding peptide; MOD_RES (7)..(8): Xaa is C or S) [SEQ ID NO: 26]”, 23%.
Same read-out and setting: as for TVPKPSSAPTQLSAISMLYL [SEQ ID NO: 18], the figure is 23%; as for “GTPGPGSAGPSSTPTKMSAISMLYL (GTPGPGSAGPXXTPTKMSAISMLYL; GFR-binding peptide; MOD_RES (11)..(12): Xaa is C or S) [SEQ ID NO: 34]”, 26%; as for “VPAEESPISILYI (CVPAEESPISILYI; GFR-binding peptide) [SEQ ID NO: 48]”, 21%.
On to ASASPSSTQVDLRPVQVRKI [SEQ ID NO: 40], for which the STRO-1 expression came to 36%.
The same measure, in the same setting: to RVPSTSSVPAKTSPISILYI [SEQ ID NO: 43] belongs 15%; to KVGKASSVPTKLEPLTILYY [SEQ ID NO: 13], 26%.
Still for that read-out and setting: to AVPKASSAPTKLSAISMLYL [SEQ ID NO: 19] belongs 19%.
On the same count and under the same terms, to “GTPGPVPQELEPLTILYY (GFR-binding peptide) [SEQ ID NO: 24]” belongs 16%; to STPPTSSVPTRLSAISMLYL [SEQ ID NO: 3], 19%.

The experiment is the same for the next values; noted with them: SEQ ID NO: 1143 to 1180 tested in solution.
Regarding “KIPKASSTPTRLSPISMLFI (GFR-binding peptide) [SEQ ID NO: 1163]”, the STRO-1 expression is on record as 28%.
Same read-out and setting: to “GIPEPSSAPTRLEPISMLYL (GFR-binding peptide) [SEQ ID NO: 1164]” belongs 16%; to “KIPKASSTQVRLRPVQIRKI (GFR-binding peptide) [SEQ ID NO: 1153]”, 30%; to “STPPTSSVPTEVSPINTLYF (GFR-binding peptide) [SEQ ID NO: 1166]”, 19%.
The same measure, in the same setting: to “STPPTSSAPVGQSPISMLYI (GFR-binding peptide) [SEQ ID NO: 1162]” belongs 19%.
Take “RVPSTSSAPTKMNAISMLYF (GFR-binding peptide) [SEQ ID NO: 1145]”: the STRO-1 expression was determined as 23%.
“KIPKASSSRVRLSSLSTLFF (GFR-binding peptide) [SEQ ID NO: 1157]”: the STRO-1 expression is listed as 20%.
Same read-out and setting: to “GIPEPSSAPVDLKPLSTLYV (GFR-binding peptide) [SEQ ID NO: 1148]” belongs 11%.
Same read-out and setting: to “GIPEPSSAPTELSATSILYY (GFR-binding peptide) [SEQ ID NO: 1146]” belongs 20%; to “STPPTSSTPTKMSNITTQIM (GFR-binding peptide) [SEQ ID NO: 1175]”, 27%; to “GIPEPSSAPVEEEPLTTLYY (GFR-binding peptide) [SEQ ID NO: 1174]”, 21%.
Same read-out and setting: to “GIPEPSSVSQEESSLSTLFF (GFR-binding peptide) [SEQ ID NO: 1156]” belongs 19%.
For “STPPTSSSRVQLSAISMLYL (GFR-binding peptide) [SEQ ID NO: 1154]”, the STRO-1 expression is recorded as 15%.

Still in this experiment, the particulars now being: grafted on a PET surface.
Consider “CCAPTQLSAISVLYFDDSSNVILKKYRNMVVRACGCR (Previously reported sequence) [SEQ ID NO: 1140, reference compound]”, for which the STRO-1 expression is 82%.
Same read-out and setting: as for “SHQSAGDSIKSPARHSAPTHQEPLPD (Previously reported sequence) [SEQ ID NO: 1099, reference compound]”, the figure is 91%; as for “AETLHTLGLSAPVIESAISDAI (Previously reported sequence) [SEQ ID NO: 1136, reference compound]”, 93%.
On the same count and under the same terms, as for “TLXPIVSSXNPSPISFRXIKILLHDLEVVPFPKSRVR (not fully specified; X: residue not identified in the source; ends and bridges not checked) [SEQ ID NO: 1107, reference compound]”, the figure is 84%; as for “CIPKPSSAPTELSAISMLYL (Previously reported sequence) [SEQ ID NO: 1134, reference compound]”, 83%.
“CCAPTELSAISVLYFDDSSNVILKKYRNMVVRACGCR (Previously reported sequence) [SEQ ID NO: 1139, reference compound]”: the STRO-1 expression was determined as 81%.
As for “SATSRLALSDVPAELAA (Previously reported sequence) [SEQ ID NO: 1112, reference compound]”, the STRO-1 expression is reported as 98%.
On the same count and under the same terms, as for “MSRVLFEPLTFLQTGSGLPDEKTLG (Previously reported sequence) [SEQ ID NO: 1096, reference compound]”, the figure is 94%; as for “TCCVPELSAISMLYLDEN (Previously reported sequence) [SEQ ID NO: 1131, reference compound]”, 84%; as for “KGSEYEKLVVSGITQVYQSSLSWHGCKSCCEVQVXNLXILIRLYDVHYYN (not fully specified; X: residue not identified in the source; ends and bridges not checked) [SEQ ID NO: 1122, reference compound]”, 88%.
Take “SVPAVCSATSATGPYSTATNTVVVPSIVATGGTT [SEQ ID NO: 1115, reference compound]”: the STRO-1 expression came to 92%.
Same read-out and setting: as for “APTQLSAISVL (Previously reported sequence) [SEQ ID NO: 1127, reference compound]”, the figure is 93%; as for “SFRTARANAPTGRSSLSGEKEQQEASTHS (Previously reported sequence) [SEQ ID NO: 1120, reference compound]”, 91%.
Same read-out and setting: to “MALPQPRGSSLSKAPVVVAPCMALKRVNIRSIVFEVLKTMNQNCIHETPN (Previously reported sequence) [SEQ ID NO: 1123, reference compound]” belongs 82%.
With “LSLLAPPEPVWNHETSYGSDCHVPTNVNAISKMIDKSNHQTG (Previously reported sequence) [SEQ ID NO: 1125, reference compound]”, the STRO-1 expression stood at 93%.
On the same count and under the same terms, as for “SPISILVVPELDASLPEKRPSLDGFEALLVYNAPKA (Previously reported sequence) [SEQ ID NO: 1106, reference compound]”, the figure is 82%; as for “LMDLARMPSCLRGERAVPQDTTGYFTWSSNITPLNFIF (Previously reported sequence) [SEQ ID NO: 1093, reference compound]”, 92%; as for “ANINKDRDNVPAATSSLSKAYNP (Previously reported sequence) [SEQ ID NO: 1119, reference compound]”, 92%.
With “KIPKPSSAPTELSAISMLYC (Previously reported sequence) [SEQ ID NO: 1133, reference compound]”, the STRO-1 expression was determined as 80%.
